From patent publication US20210238192A1, “VASCULAR ADHESION PROTEIN-1 (VAP-1) MODULATORS AND THERAPEUTIC USES THEREOF” (Blade Therapeutics, Inc., priority 2018, published 2021)
Counter-ions that a name gives are not always drawn.

Columns and labels:
Format in all cases: biochemical
Human MAO-A = target: T1, Human MAO-A (Homo sapiens, UniProt P21397); assay: MAO-A inhibition (Amplex Red continuous fluorescence assay); conditions: 30 min pre-incubation at room temp; substrate tyramine; read-out: Human MAO-A IC50
T1 sequence (P21397 1-527): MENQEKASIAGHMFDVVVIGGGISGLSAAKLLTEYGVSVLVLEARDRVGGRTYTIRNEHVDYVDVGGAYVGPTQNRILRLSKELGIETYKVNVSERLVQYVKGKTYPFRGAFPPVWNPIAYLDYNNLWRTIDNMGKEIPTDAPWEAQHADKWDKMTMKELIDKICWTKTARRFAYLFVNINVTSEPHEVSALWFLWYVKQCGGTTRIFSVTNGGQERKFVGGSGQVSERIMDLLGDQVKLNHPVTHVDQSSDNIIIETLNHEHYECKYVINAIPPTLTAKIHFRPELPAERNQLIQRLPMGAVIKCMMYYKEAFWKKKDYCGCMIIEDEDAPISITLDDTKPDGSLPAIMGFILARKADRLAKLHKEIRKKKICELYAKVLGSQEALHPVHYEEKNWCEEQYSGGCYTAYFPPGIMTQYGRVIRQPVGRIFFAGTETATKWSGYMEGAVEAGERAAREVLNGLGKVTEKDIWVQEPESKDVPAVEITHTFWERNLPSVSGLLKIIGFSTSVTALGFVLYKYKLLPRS
Procedure: (§1) VAP-1, DAO, MAO-A, MAO-B, and HRP activity and inhibition thereof was assessed by means of a continuous fluorescence assay. The Amplex Red Hydrogen Peroxide/Peroxidase Assay (ThermoFisher) was optimized for detecting amine oxidase (AO) activity. In an enzyme-coupled reaction, the H2O2 generated by AO reacts 1:1 with Amplex Red reagent to produce fluorescent product resorufin.
(§2) Assays were typically setup in black 384-well plates using automated liquid handling as follows. VAP-1/MAO assay buffer contains […] sodium phosphate, pH 7.4; DAO assay buffer contains 50 mM HEPES, pH 7.5; HRP assay buffer contains 100 mM CHES, 1 mM MgCl2, 50 mM NaCl, 0.05% BSA, pH 9.0. Inhibitors were serially diluted in DMSO and used to setup 2× mixtures with AO in the aforementioned buffer. After 30 min pre-incubation at 37° C. (VAP-1, HRP) or room temp (DAO, MAO), the reaction was initiated by adding a 2× mix of Amplex Red, HRP (coupling enzyme), and substrate (benzylamine, histamine, tyramine, benzylamine, H2O2, for VAP-1, DAO, MAO-A, MAO-B, and HR, respectively) in the same buffer. Reaction progress curve data were typically collected for 5 min using excitation/emission wavelengths of 510 nm/565 nm on FLIPR-Tetra plate readers (Molecular Devices Inc). Reaction rates were calculated from progress curve slopes typically over 60-150 sec. Dose response curves (rate vs. log inhibitor concentration) were typically fit to a 4-parameter logistic function to extract IC50 values.

Human MAO-B = target: T2, Human MAO-B (Homo sapiens, UniProt P27338); assay: MAO-B inhibition (Amplex Red continuous fluorescence assay); conditions: 30 min pre-incubation at room temp; substrate benzylamine; read-out: Human MAO-B IC50
T2 sequence (P27338 1-520): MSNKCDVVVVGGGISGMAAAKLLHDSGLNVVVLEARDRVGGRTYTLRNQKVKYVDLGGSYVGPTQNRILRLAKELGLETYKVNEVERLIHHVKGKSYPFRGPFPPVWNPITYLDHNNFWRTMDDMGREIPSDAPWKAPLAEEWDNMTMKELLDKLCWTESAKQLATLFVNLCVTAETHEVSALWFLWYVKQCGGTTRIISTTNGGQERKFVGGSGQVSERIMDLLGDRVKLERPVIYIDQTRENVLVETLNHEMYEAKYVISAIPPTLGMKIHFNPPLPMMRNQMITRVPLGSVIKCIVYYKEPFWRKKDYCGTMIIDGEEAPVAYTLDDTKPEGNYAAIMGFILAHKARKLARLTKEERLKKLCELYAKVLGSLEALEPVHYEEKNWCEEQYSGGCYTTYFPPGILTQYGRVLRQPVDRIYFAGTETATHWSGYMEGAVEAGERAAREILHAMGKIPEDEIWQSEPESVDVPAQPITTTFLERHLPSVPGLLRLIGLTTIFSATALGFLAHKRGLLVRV
Procedure: as §1, §2

Human VAP-1 = target: T3, Human VAP-1 (Homo sapiens, UniProt Q16853); assay: VAP-1 inhibition assay (Amplex Red continuous fluorescence assay); conditions: 30 min pre-incubation at 37° C.; substrate benzylamine; read-out: Human VAP-1 IC50
T3 sequence (Q16853 1-763): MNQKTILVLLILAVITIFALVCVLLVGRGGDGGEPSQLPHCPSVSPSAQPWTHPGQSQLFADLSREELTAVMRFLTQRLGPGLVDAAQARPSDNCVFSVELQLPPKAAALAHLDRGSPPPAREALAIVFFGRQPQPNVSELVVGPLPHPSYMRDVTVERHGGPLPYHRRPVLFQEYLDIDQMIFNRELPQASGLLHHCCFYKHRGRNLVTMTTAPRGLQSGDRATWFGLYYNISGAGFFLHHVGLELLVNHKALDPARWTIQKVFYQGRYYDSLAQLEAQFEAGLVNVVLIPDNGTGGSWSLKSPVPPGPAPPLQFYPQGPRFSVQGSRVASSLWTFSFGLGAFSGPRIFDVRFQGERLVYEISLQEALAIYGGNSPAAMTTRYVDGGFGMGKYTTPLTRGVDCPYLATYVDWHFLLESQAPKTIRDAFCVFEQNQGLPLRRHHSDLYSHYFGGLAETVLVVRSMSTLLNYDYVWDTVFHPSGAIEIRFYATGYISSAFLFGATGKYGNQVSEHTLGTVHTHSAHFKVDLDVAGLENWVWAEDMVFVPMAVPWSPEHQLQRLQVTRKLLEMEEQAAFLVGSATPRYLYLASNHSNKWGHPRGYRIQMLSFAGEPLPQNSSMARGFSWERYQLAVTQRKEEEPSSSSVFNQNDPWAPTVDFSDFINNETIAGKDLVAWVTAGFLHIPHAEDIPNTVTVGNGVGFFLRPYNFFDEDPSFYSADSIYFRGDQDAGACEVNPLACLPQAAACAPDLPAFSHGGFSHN
Procedure: as §1, §2

Human DAO = target: T4, Human DAO (Homo sapiens, UniProt P19801); assay: DAO inhibition (Amplex Red continuous fluorescence assay); conditions: 30 min pre-incubation at room temp; substrate histamine; read-out: Human DAO IC50
T4 sequence (P19801 20-751): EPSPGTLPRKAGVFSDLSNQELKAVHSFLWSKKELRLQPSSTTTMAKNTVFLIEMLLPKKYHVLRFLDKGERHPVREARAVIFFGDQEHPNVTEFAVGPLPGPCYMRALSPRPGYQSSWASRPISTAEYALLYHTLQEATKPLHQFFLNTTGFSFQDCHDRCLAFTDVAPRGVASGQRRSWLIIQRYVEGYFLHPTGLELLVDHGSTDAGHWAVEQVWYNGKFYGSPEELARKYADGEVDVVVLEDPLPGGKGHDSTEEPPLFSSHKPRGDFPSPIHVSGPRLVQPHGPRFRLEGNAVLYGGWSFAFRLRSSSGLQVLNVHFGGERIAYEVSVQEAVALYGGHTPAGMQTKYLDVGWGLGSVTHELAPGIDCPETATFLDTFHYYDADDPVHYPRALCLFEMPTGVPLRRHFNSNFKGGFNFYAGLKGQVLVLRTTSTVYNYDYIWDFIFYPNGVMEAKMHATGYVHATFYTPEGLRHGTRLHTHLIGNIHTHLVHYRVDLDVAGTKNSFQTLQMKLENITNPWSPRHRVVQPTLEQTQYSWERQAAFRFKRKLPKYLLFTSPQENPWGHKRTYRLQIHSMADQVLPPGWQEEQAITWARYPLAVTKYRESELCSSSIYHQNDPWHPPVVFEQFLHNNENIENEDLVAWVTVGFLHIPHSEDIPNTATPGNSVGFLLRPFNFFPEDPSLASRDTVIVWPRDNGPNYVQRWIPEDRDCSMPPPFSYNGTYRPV
Procedure: as §1, §2

Compound | IC50 (Human MAO-A) [µM] | IC50 (Human MAO-B) [µM] | IC50 (Human VAP-1) [µM] | IC50 (Human DAO) [µM]
NCC(=CF)CN1CCCCC1 (mixture of isomers) [Compound 12, 3-fluoro-2-(piperidin-1-ylmethyl)prop-2-en-1-amine] | > 10 | > 10 | > 10 | 
CC(=O)N(CC(=CF)CN)C1CCCCC1 (mixture of isomers) [Compound 31, hydrochloride] | > 10 | > 10 | > 10 | 
CC(=O)N(C/C(=C/F)CN)c1ccccc1 [Compound 1, (E)-N-(2-(aminomethyl)-3-fluoroalkyl)-N-phenylacetamide hydrochloride] | > 10 | > 10 | > 10 | 
NC/C(=C\F)COc1cccc2[nH]cnc12 [Compound 2, hydrochloride] | > 10 | > 10 | 3 to 10 | 
NC/C(=C\F)CNc1ccccc1 [Compound 3, (E)-2-(fluoromethylene)-N^1-phenylpropane-1,3-diamine hydrochloride] | > 10 | < 3 | < 3 | > 10
NC/C(=C\F)COc1ccc(-c2ncc[nH]2)cc1 [Compound 4, (E)-2-((4-(1H-imidazol-2-yl)phenoxy)methyl)-3-fluoroprop-2-en-1-amine] | > 10 | > 10 | < 3 | < 3
NC/C(=C\F)COCc1ccccc1 [Compound 5, (E)-2-((benzyloxy)methyl)-3-fluoroprop-2-en-1-amine hydrochloride] | < 3 | < 3 | < 3 | > 10
NC/C(=C/F)COCc1ccccc1 [Compound 6, (Z)-2-((benzyloxy)methyl)-3-fluoroprop-2-en-1-amine hydrochloride] | < 3 | < 3 | < 3 | 3 to 10
CCNC(=O)Nc1ccc(OC/C(=C/F)CN)cc1 [Compound 7, (E)-1-(4-((2-(aminomethyl)-3-fluoroalkyl)oxy)phenyl)-3-ethylurea hydrochloride] | 3 to 10 | < 3 | < 3 | 3 to 10
NC/C(=C\F)COc1cccc2scnc12 [Compound 8, (E)-2-((benzo[d]thiazol-4-yloxy)methyl)-3-fluoroprop-2-en-1-amine hydrochloride] | < 3 | < 3 | < 3 | < 3
NC/C(=C/F)COc1cccc2scnc12 [Compound 9, (Z)-2-((benzo[d]thiazol-4-yloxy)methyl)-3-fluoroprop-2-en-1-amine hydrochloride] | 3 to 10 | < 3 | < 3 | > 10
NC/C(=C\F)COc1ccc(-c2nc3ccccc3[nH]2)cc1 [Compound 10, (E)-2-((4-(1H-benzo[d]imidazol-2-yl)phenoxy)methyl)-3-fluoroprop-2-en-1-amine hydrochloride] | > 10 | < 3 | < 3 | < 3
NC/C(=C\F)CNS(=O)(=O)c1ccccc1 [Compound 17, (E)-N-(2-(aminomethyl)-3-fluoroalkyl)benzenesulfonamide hydrochloride] | > 10 | > 10 | 3 to 10 | 
NC/C(=C\F)CNC1CCCCC1 [Compound 22, (E)-N1-cyclohexyl-2-(fluoromethylene)propane-1,3-diamine] | > 10 | 3 to 10 | > 10 | 
Cn1ccnc1-c1ccc(OC/C(=C/F)CN)cc1 [Compound 27, (E)-3-fluoro-2-((4-(1-methyl-1H-imidazol-2-yl)phenoxy)methyl)prop-2-en-1-aminedihydrochloride] | > 10 | < 3 | < 3 | 
CC(=O)N(CC(=CF)CN)Cc1ccccc1 [Compound 32] | > 10 | > 10 | > 10 | 
NC/C(=C\F)COc1ccc(C(=O)NCCCCCNC(=O)CCCCC2SCC3NC(=O)NC32)cc1 (centres unmarked) [Compound 76, (E)-4-((2-(aminomethyl)-3-fluoroalkyl)oxy)-N-(5-(5-(2-oxohexahydro-1H-thieno[3,4-d]imidazol-4-yl)pentanamido)pentyl)benzamide] | > 10 | < 3 |  | < 3
NC/C(=C\F)COc1ccc(C(=O)NCCOCCOCCOCCNC(=O)CCCCC2SCC3NC(=O)NC32)cc1 (centres unmarked) [Compound 77, (E)-4-((2-(aminomethyl)-3-fluoroalkyl)oxy)-N-(13-oxo-17-(2-oxohexahydro-1H-thieno[3,4-d]imidazol-4-yl)-3,6,9-trioxa-12-azaheptadecyl)benzamide] | > 10 | 3 to 10 |  | < 3
